# Reference: ChEMBL document CHEMBL1138000, “Novel, potent and selective anilinoquinazoline and anilinopyrimidine inhibitors of p38 MAP kinase” (Bioorg Med Chem Lett, 2004)
# pIC50: −log10 of the molar value.
# Tests used:
# [1] = molecular target: Epidermal growth factor receptor (Homo sapiens, UniProt P00533); assay: Inhibitory concentration against Epidermal growth factor receptor tyrosine kinase activity
# [2] = molecular target: Mitogen-activated protein kinase 14 (Homo sapiens, UniProt Q16539)
# Mitogen-activated protein kinase 14, sequence (Q16539 whole entry): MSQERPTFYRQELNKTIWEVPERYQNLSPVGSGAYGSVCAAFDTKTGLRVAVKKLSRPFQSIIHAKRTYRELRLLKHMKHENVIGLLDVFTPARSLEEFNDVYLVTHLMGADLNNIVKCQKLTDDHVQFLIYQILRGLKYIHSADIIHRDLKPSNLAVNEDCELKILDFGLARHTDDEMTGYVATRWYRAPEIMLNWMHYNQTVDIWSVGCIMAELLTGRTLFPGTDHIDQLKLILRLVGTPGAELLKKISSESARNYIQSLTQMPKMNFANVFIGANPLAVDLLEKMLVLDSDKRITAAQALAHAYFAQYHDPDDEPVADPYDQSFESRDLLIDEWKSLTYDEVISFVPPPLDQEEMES
# Description: Inhibitory concentration against alpha mitogen activated protein kinase p38 activity
# Homo sapiens = species on record: Homo sapiens; assay: Concentration required to inhibit TNF-alpha production was determined in human whole blood; type: functional
# [3] = oral bioavailability after oral dosing at 1 mg/kg; type: ADME, organism-based; conditions: rat, in vivo, read-out: Bioavailabiility
# [4] = Volume of distribution at steady state after oral dosing at 1 mg/kg; type: ADME, organism-based; design: dose 1 mg/kg, route oral; conditions: rat, in vivo
# [5] = Clearance after oral dosing at 1 mg/kg; type: ADME, organism-based; design: dose 1 mg/kg, route oral; conditions: rat, in vivo, read-out: Clearance
# [6] = oral bioavailability after p.o. dosing at 1 mg/kg; conditions: rat, in vivo, read-out: Bioavailabiility
# [7] = Volume of distribution at steady state after i.v. dosing at 1 mg/kg; type: ADME, organism-based; design: dose 1 mg/kg, route intravenous; conditions: rat, in vivo, iv, read-out: Distribution
# [8] = Clearance after i.v. dosing at 1 mg/kg; type: ADME, organism-based; design: dose 1 mg/kg, route intravenous; conditions: rat, in vivo, iv
# [9] = Log D value at pH 7.4; type: physicochemical; conditions: buffer
# [10] = Protein binding was determined in rat plasma; type: ADME, cell-free
# Epidermal growth factor receptor, sequence (P00533 whole entry): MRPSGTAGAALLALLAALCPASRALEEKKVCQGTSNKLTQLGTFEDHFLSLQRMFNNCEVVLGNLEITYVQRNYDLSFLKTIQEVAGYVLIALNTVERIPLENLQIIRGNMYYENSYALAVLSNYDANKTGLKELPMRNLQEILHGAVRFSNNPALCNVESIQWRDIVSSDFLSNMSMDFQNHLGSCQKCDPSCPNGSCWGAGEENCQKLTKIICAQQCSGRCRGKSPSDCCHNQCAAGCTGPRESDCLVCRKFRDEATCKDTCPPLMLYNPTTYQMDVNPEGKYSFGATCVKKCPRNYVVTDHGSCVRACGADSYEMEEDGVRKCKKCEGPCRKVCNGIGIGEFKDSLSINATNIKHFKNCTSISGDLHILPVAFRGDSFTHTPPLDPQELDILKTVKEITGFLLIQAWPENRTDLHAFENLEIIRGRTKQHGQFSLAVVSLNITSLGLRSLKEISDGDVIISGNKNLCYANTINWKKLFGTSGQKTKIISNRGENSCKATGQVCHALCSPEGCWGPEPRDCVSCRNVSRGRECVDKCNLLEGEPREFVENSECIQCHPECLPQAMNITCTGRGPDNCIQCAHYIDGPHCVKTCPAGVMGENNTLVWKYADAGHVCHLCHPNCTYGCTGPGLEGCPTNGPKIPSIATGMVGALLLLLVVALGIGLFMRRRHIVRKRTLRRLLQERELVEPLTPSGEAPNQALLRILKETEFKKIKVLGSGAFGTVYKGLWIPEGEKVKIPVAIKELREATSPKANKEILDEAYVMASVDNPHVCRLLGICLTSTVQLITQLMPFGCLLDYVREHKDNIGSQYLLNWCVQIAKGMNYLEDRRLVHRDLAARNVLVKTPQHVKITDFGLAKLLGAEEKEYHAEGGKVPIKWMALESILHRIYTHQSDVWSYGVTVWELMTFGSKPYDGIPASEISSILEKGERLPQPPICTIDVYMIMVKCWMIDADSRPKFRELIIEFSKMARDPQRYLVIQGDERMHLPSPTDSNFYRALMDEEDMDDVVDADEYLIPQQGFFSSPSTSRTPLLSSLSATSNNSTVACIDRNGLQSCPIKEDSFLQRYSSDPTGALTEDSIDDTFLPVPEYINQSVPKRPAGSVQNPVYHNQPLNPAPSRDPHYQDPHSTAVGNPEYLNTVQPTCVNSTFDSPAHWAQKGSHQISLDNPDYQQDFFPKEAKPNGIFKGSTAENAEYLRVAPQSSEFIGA
compound,measurement,setting,value
COc1cc2ncnc(Nc3cccc(NC(=O)c4ccccc4)c3F)c2cc1OC,pIC50,[1],5.55
same,pIC50,[2],6.16
same,pIC50,Homo sapiens,< 4.30
C=CCN(C)c1nccc(Nc2cc(NC(=O)c3ccnc(N4CCOCC4)c3)ccc2C)n1,pIC50,[2],6.96
same,pIC50,Homo sapiens,< 4.30
COc1cc2ncnc(Nc3cc(NC(=O)c4cccc(N5CCOCC5)c4)ccc3C)c2cc1OC,pIC50,[1],< 4.48
same,pIC50,[2],8.00
same,pIC50,Homo sapiens,4.80
Cc1ccc(NC(=O)c2ccnc(N3CCOCC3)c2)cc1Nc1cc(N2CCCN(C)CC2)ncn1,pIC50,[2],5.91
same,pIC50,Homo sapiens,< 4.30
COc1cc2ncnc(Nc3cc(NC(=O)c4ccnc(N5CCOCC5)c4)ccc3C)c2cc1OCCN1CCOCC1,pIC50,[2],7.70
same,pIC50,Homo sapiens,5.11
COc1cc2ncnc(Nc3cc(NC(=O)c4ccccc4)ccc3C)c2cc1OC,pIC50,[1],< 4.48
same,pIC50,[2],7.15
same,pIC50,Homo sapiens,4.68
COc1cc2ncnc(Nc3ccc(Cl)c(NC(=O)c4cccc(N(C)C)c4)c3)c2cc1OC,pIC50,[1],6.00
same,pIC50,[2],5.77
same,pIC50,Homo sapiens,< 4.30
COc1cc2ncnc(Nc3cc(NC(=O)c4ccccc4)c(Cl)cc3F)c2cc1OC,pIC50,[2],6.29
same,pIC50,Homo sapiens,< 4.30
CCCN1CCC(Oc2nccc(Nc3cc(NC(=O)c4ccnc(N5CCOCC5)c4)ccc3C)n2)CC1,pIC50,[2],7.30
same,pIC50,Homo sapiens,6.39
Cc1ccc(NC(=O)c2ccnc(N3CCOCC3)c2)cc1Nc1ccncn1,pIC50,[2],6.68
same,pIC50,Homo sapiens,4.57
Cc1ccc(NC(=O)c2ccnc(N3CCOCC3)c2)cc1Nc1ccnc(OC2CCN(C)CC2)n1,pIC50,[2],7.40
same,pIC50,Homo sapiens,6.30
COc1cc2ncnc(Nc3cc(NC(=O)c4ccccc4)ccc3Cl)c2cc1OC,pIC50,[1],4.96
same,pIC50,[2],7.10
same,pIC50,Homo sapiens,< 4.30
Cc1ccc(NC(=O)c2ccnc(N3CCOCC3)c2)cc1Nc1ccnc(Cl)n1,pIC50,[2],8.00
same,pIC50,Homo sapiens,4.96
Cc1ccc(NC(=O)c2ccnc(N3CCOCC3)c2)cc1Nc1cc(Cl)ncn1,pIC50,[2],6.62
same,pIC50,Homo sapiens,< 4.30
COc1cc2ncnc(Nc3cc(NC(=O)c4ccccc4)c(F)cc3F)c2cc1OC,pIC50,[1],6.31
same,pIC50,[2],7.30
same,pIC50,Homo sapiens,< 4.30
Cc1ccc(NC(=O)c2ccnc(N3CCOCC3)c2)cc1Nc1ccnc(OCCCN(C)C)n1,pIC50,[2],7.52
same,pIC50,Homo sapiens,5.49
COc1cc2ncnc(Nc3ccc(C)c(NC(=O)c4ccccc4)c3)c2cc1OC,pIC50,[1],5.49
same,pIC50,[2],5.68
same,pIC50,Homo sapiens,< 4.30
COc1cc2ncnc(Nc3cccc(NC(=O)c4ccccc4)c3)c2cc1OC,pIC50,[1],5.25
same,pIC50,[2],6.85
same,pIC50,Homo sapiens,< 4.30
Cc1ccc(NC(=O)c2ccnc(N3CCOCC3)c2)cc1Nc1cc(NCCCN2CCCC2)ncn1,pIC50,[2],6.35
same,pIC50,Homo sapiens,< 4.30
COc1cc2ncnc(Nc3cc(NC(=O)c4cccc(N(C)C)c4)ccc3Cl)c2cc1OC,pIC50,[1],4.54
same,pIC50,[2],7.40
same,pIC50,Homo sapiens,< 4.30
CSc1nccc(Nc2cc(NC(=O)c3cc(F)cc(N4CCOCC4)c3)ccc2C)n1,bioavailability,[3],26%
same,Distribution,[4],0.8 L/kg
same,CL/F,[5],25 mL/min/kg
same,bioavailability,[6],26%
same,Vd,[7],0.8 L/kg
same,clearance,[8],25 mL/min/kg
same,pIC50,[2],8.00
same,pIC50,Homo sapiens,5.47
COc1cc2ncnc(Nc3cc(NC(=O)c4ccnc(N5CCOCC5)c4)ccc3C)c2cc1OCCN(C)C,pIC50,[2],7.52
same,pIC50,Homo sapiens,5.16
CCN(CC)CCCNc1cc(Nc2cc(NC(=O)c3ccnc(N4CCOCC4)c3)ccc2C)ncn1,pIC50,[2],6.55
same,pIC50,Homo sapiens,4.64
COc1cc2ncnc(Nc3cc(NC(=O)c4ccnc(N5CCOCC5)c4)ccc3C)c2cc1OCCN1CCCCC1,pIC50,[2],7.30
same,pIC50,Homo sapiens,5.34
Cc1ccc(NC(=O)c2ccnc(N3CCOCC3)c2)cc1Nc1ccnc(NCCCN2CCOCC2)n1,pIC50,[2],7.05
same,pIC50,Homo sapiens,< 4.30
COc1cc2ncnc(Nc3ccc(Cl)c(NC(=O)c4ccccc4)c3)c2cc1OC,pIC50,[1],5.66
same,pIC50,[2],6.21
same,pIC50,Homo sapiens,< 4.30
CCCN1CCC(Oc2nccc(Nc3cc(NC(=O)c4cccc(N5CCOCC5)c4)ccc3C)n2)CC1,pIC50,[2],7.40
same,pIC50,Homo sapiens,6.52
Cc1ccc(NC(=O)c2ccnc(N3CCOCC3)c2)cc1Nc1ccnc(OCC(C)(C)CN(C)C)n1,pIC50,[2],7.15
same,pIC50,Homo sapiens,5.43
COc1cc2ncnc(Nc3cc(NC(=O)c4ccnc(N5CCOCC5)c4)ccc3C)c2cc1OCCN(C(C)C)C(C)C,logD,[9],3.5
same,solubility,Aqueous solubility,240 µM
same,pIC50,[2],7.30
same,pIC50,Homo sapiens,5.46
same,Binding,[10],83%
COc1cc2ncnc(Nc3cc(NC(=O)c4cccc(N(C)C)c4)ccc3C)c2cc1OC,pIC50,[1],< 4.48
same,pIC50,[2],7.52
same,pIC50,Homo sapiens,4.46
Cc1ccc(NC(=O)c2ccnc(N3CCOCC3)c2)cc1Nc1ccnc(OCC2CCCN(C)C2)n1 (configuration not stated),pIC50,[2],7.52
same,pIC50,Homo sapiens,5.96
COc1cc2ncnc(Nc3cccc(NC(=O)c4cccc(N(C)C)c4)c3)c2cc1OC,pIC50,[1],< 4.48
same,pIC50,[2],6.68
same,pIC50,Homo sapiens,< 4.30
Cc1ccc(NC(=O)c2ccnc(N3CCOCC3)c2)cc1Nc1ccnc(N(C)C2CCN(C)CC2)n1,pIC50,[2],7.10
same,pIC50,Homo sapiens,5.28
Cc1ccc(NC(=O)c2ccnc(N3CCOCC3)c2)cc1Nc1ccnc(NCCCN2CCCC2)n1,pIC50,[2],7.30
same,pIC50,Homo sapiens,4.80
C[S+]([O-])c1ccc(-c2nc(-c3ccc(F)cc3)c(-c3ccncc3)[nH]2)cc1 (configuration not stated) [SB-203580],pIC50,Homo sapiens,5.70
COc1cc2ncnc(Nc3cccc(Cl)c3)c2cc1OC [TYRPHOSTIN AG-1478],pIC50,[2],6.25
same,pIC50,Homo sapiens,< 4.30
